Laboratory results: ChEMBL document CHEMBL4706528, “The design, synthesis and anti-tumor mechanism study of new androgen receptor degrader” (Eur J Med Chem, 2020)

Tests used:
[1] = system: PC-3; assay: Antiproliferative activity against androgen-negative human PC-3 cells assessed as cell growth inhibition measured after 72 hrs by SRB assay; format: functional, cell-based; details: PC-3, 72 h
[2] = biological target: T1, Androgen receptor (Homo sapiens) (UniProt P10275); assay: Binding affinity to androgen receptor LBD (unknown origin) at 10 uM incubated for 4 hrs under dark by fluorescence polarization based binding assay relative to R1881
T1 sequence (whole entry): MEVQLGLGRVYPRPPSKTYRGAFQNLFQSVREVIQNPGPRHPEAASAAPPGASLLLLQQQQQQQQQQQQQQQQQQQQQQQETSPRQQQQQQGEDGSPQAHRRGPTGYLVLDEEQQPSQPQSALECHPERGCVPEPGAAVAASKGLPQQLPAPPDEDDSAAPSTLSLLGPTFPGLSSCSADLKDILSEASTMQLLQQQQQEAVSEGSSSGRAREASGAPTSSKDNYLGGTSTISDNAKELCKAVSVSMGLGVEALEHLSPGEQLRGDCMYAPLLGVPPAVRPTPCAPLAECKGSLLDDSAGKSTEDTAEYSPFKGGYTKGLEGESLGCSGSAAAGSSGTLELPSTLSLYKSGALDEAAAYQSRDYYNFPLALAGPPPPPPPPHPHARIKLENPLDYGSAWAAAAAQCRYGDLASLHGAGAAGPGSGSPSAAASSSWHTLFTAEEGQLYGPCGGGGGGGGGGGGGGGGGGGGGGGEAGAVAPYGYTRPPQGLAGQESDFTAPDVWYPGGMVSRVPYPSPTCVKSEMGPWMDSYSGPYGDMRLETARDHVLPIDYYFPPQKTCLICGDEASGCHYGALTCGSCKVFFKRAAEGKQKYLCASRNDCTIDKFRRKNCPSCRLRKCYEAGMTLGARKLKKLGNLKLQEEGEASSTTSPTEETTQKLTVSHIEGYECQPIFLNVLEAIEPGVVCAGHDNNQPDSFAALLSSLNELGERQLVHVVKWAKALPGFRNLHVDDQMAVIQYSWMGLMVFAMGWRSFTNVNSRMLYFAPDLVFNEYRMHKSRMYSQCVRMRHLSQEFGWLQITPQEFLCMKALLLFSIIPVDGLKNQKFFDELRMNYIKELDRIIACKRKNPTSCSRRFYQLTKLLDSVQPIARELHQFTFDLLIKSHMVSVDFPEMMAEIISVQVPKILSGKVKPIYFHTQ

[3] = system: LNCaP; assay: Antiproliferative activity against androgen-positive human LNCaP cells assessed as cell growth inhibition measured after 72 hrs by SRB assay; format: functional, cell-based
[4] = Cytotoxicity against androgen-negative human WPMY-1 cells assessed as cell growth inhibition measured after 72 hrs by SRB assay; format: cell-based; details: WPMY-1, 72 h
[5] = system: LNCaP C4-2B; assay: Antiproliferative activity against androgen-sensitive positive human LNCaP C4-2B cells assessed as cell growth inhibition measured after 72 hrs by SRB assay; format: functional, cell-based

SMILES | IC50 [1] | Activity [2] | IC50 [3] | IC50 [4] | IC50 [5]
CC1(C)C(=O)N(c2ccc(C#N)c(C(F)(F)F)c2)C(=O)N1CCCn1cc(COCCOCCOCCOC(=O)CC23CC4CC(CC(C4)C2)C3)nn1 | > 80 µM | 33.9% | 6.66 µM | > 80 µM | 9.95 µM
CC1(C)C(=O)N(c2ccc(C#N)c(C(F)(F)F)c2)C(=O)N1Cc1ccc(OCCOCCOC(=O)CC23CC4CC(CC(C4)C2)C3)cc1 | > 80 µM | 26.3% | > 80 µM | > 80 µM | > 80 µM
CC1(C)C(=O)N(c2ccc(C#N)c(C(F)(F)F)c2)C(=S)N1Cc1cn(CCOCCOC(=O)CC23CC4CC(CC(C4)C2)C3)nn1 | > 80 µM | 22.2% | > 80 µM | > 80 µM | 17.4 µM
CC1(C)C(=O)N(c2ccc(C#N)c(C(F)(F)F)c2)C(=S)N1CCCn1cc(COCCCOC(=O)CC23CC4CC(CC(C4)C2)C3)nn1 | > 80 µM | 31.6% | 6.64 µM | > 80 µM | 10.6 µM
CC1(C)C(=O)N(c2ccc(C#N)c(C(F)(F)F)c2)C(=S)N1Cc1ccc(-n2cc(COCCCOC(=O)CC34CC5CC(CC(C5)C3)C4)nn2)cc1 | > 80 µM | 26% | > 80 µM | > 80 µM | > 80 µM
CC1(C)C(=O)N(c2ccc(C#N)c(C(F)(F)F)c2)C(=S)N1Cc1ccc(OCCCOC(=O)CC23CC4CC(CC(C4)C2)C3)cc1 | > 80 µM | 37.9% | > 80 µM | > 80 µM | > 80 µM
CC1(C)C(=O)N(c2ccc(C#N)c(C(F)(F)F)c2)C(=O)N1CCCn1cc(COCCCOC(=O)CC23CC4CC(CC(C4)C2)C3)nn1 | > 80 µM | 24.3% | 4.06 µM | > 80 µM | 11.2 µM
CC1(C)C(=O)N(c2ccc(C#N)c(C(F)(F)F)c2)C(=O)N1Cc1ccc(-n2cc(COCCCOC(=O)CC34CC5CC(CC(C5)C3)C4)nn2)cc1 | > 80 µM | 19.1% | > 80 µM | > 80 µM | > 80 µM
CC1(C)C(=O)N(c2ccc(C#N)c(C(F)(F)F)c2)C(=S)N1Cc1cn(CCOCCOCCOCCOC(=O)CC23CC4CC(CC(C4)C2)C3)nn1 | > 80 µM | 69.1% | 6.31 µM | > 80 µM | 11.2 µM
CC1(C)C(=O)N(c2ccc(C#N)c(C(F)(F)F)c2)C(=S)N1CCCCCCn1cc(COCCOCCOC(=O)CC23CC4CC(CC(C4)C2)C3)nn1 | > 80 µM | 32.3% | 33.9 µM | > 80 µM | > 80 µM
CC1(C)C(=O)N(c2ccc(C#N)c(C(F)(F)F)c2)C(=S)N1Cc1ccc(-n2cc(COCCOCCOC(=O)CC34CC5CC(CC(C5)C3)C4)nn2)cc1 | > 80 µM | 35.8% | > 80 µM | > 80 µM | > 80 µM
CC1(C)C(=O)N(c2ccc(C#N)c(C(F)(F)F)c2)C(=O)N1Cc1ccc(-n2cc(COCCOCCOCCOCCOC(=O)CC34CC5CC(CC(C5)C3)C4)nn2)cc1 | > 80 µM | 51.8% | > 80 µM | > 80 µM | > 80 µM
CC1(C)C(=O)N(c2ccc(C#N)c(C(F)(F)F)c2)C(=S)N1Cc1ccc(OCCOCCOCCOCCOC(=O)CC23CC4CC(CC(C4)C2)C3)cc1 | > 80 µM | 35.8% | > 80 µM | > 80 µM | > 80 µM
CC1(C)C(=O)N(c2ccc(C#N)c(C(F)(F)F)c2)C(=S)N1Cc1ccc(OCCOCCOC(=O)CC23CC4CC(CC(C4)C2)C3)cc1 | > 80 µM | 34.2% | > 80 µM | > 80 µM | > 80 µM
CC1(C)C(=O)N(c2ccc(C#N)c(C(F)(F)F)c2)C(=S)N1Cc1ccc(-n2cc(COCCOCCOCCOCCOC(=O)CC34CC5CC(CC(C5)C3)C4)nn2)cc1 | > 80 µM | 39.9% | > 80 µM | > 80 µM | > 80 µM
CC1(C)C(=O)N(c2ccc(C#N)c(C(F)(F)F)c2)C(=S)N1CCCn1cc(COCCOCCOCCOCCOCCOC(=O)CC23CC4CC(CC(C4)C2)C3)nn1 | > 80 µM | 33.7% | 6.92 µM | > 80 µM | 6.61 µM
CC1(C)C(=O)N(c2ccc(C#N)c(C(F)(F)F)c2)C(=O)N1Cc1cn(CCCOC(=O)CC23CC4CC(CC(C4)C2)C3)nn1 | > 80 µM | 43.4% | > 80 µM | > 80 µM | > 80 µM
CC1(C)C(=O)N(c2ccc(C#N)c(C(F)(F)F)c2)C(=O)N1Cc1ccc(-n2cc(COCCOCCOCCOC(=O)CC34CC5CC(CC(C5)C3)C4)nn2)cc1 | > 80 µM | 20.1% | > 80 µM | > 80 µM | > 80 µM
CC1(C)C(=O)N(c2ccc(C#N)c(C(F)(F)F)c2)C(=S)N1CCCn1cc(COCCOCCOCCOCCOC(=O)CC23CC4CC(CC(C4)C2)C3)nn1 | > 80 µM | 69.3% | 4.25 µM | > 80 µM | 7.64 µM
CC1(C)C(=O)N(c2ccc(C#N)c(C(F)(F)F)c2)C(=S)N1Cc1ccc(-n2cc(COCCOCCOCCOCCOCCOC(=O)CC34CC5CC(CC(C5)C3)C4)nn2)cc1 | > 80 µM | 39.1% | > 80 µM | > 80 µM | 12.2 µM
CC1(C)C(=O)N(c2ccc(C#N)c(C(F)(F)F)c2)C(=S)N1Cc1ccc(OCCOCCOCCOC(=O)CC23CC4CC(CC(C4)C2)C3)cc1 | > 80 µM | 32% | > 80 µM | > 80 µM | 14.6 µM
CC1(C)C(=O)N(c2ccc(C#N)c(C(F)(F)F)c2)C(=S)N1Cc1cn(CCOCCOCCOC(=O)CC23CC4CC(CC(C4)C2)C3)nn1 | > 80 µM | 35.1% | 9.13 µM | > 80 µM | > 80 µM
CC1(C)C(=O)N(c2ccc(C#N)c(C(F)(F)F)c2)C(=O)N1Cc1cn(CCOCCOC(=O)CC23CC4CC(CC(C4)C2)C3)nn1 | > 80 µM | 52.8% | > 80 µM | > 80 µM | 11.9 µM
CC1(C)C(=O)N(c2ccc(C#N)c(C(F)(F)F)c2)C(=S)N1Cc1ccc(-n2cc(COCCOCCOCCOC(=O)CC34CC5CC(CC(C5)C3)C4)nn2)cc1 | > 80 µM | 25.3% | > 80 µM | > 80 µM | > 80 µM
CC1(C)C(=O)N(c2ccc(C#N)c(C(F)(F)F)c2)C(=O)N1Cc1ccc(-n2cc(COCCOCCOC(=O)CC34CC5CC(CC(C5)C3)C4)nn2)cc1 | > 80 µM | 36.7% | > 80 µM | > 80 µM | > 80 µM
CC1(C)C(=O)N(c2ccc(C#N)c(C(F)(F)F)c2)C(=O)N1CCCn1cc(COCCOCCOCCOCCOC(=O)CC23CC4CC(CC(C4)C2)C3)nn1 | > 80 µM | 47% | 9.96 µM | > 80 µM | 11.7 µM
CC1(C)C(=O)N(c2ccc(C#N)c(C(F)(F)F)c2)C(=O)N1CCCn1cc(COCCOCCOC(=O)CC23CC4CC(CC(C4)C2)C3)nn1 | > 80 µM | 41.9% | 7.28 µM | > 80 µM | 12.3 µM
CC1(C)C(=O)N(c2ccc(C#N)c(C(F)(F)F)c2)C(=O)N1Cc1cn(CCOCCOCCOC(=O)CC23CC4CC(CC(C4)C2)C3)nn1 | > 80 µM | 46.7% | 7.7 µM | > 80 µM | 8.34 µM
CC1(C)C(=O)N(c2ccc(C#N)c(C(F)(F)F)c2)C(=S)N1Cc1cn(CCCOC(=O)CC23CC4CC(CC(C4)C2)C3)nn1 | > 80 µM | 52.8% | > 80 µM | > 80 µM | > 80 µM
CC1(C)C(=O)N(c2ccc(C#N)c(C(F)(F)F)c2)C(=O)N1Cc1cn(CCOCCOCCOCCOC(=O)CC23CC4CC(CC(C4)C2)C3)nn1 | > 80 µM | 29.8% | 6.87 µM | > 80 µM | 7.76 µM
